Results published in ChEMBL document CHEMBL3885881, “DrugMatrix”.

Species: Rattus norvegicus
Test: DrugMatrix - Regimen: Daily Repeat
Type: toxicity, organism-based, Sprague-Dawley
Set-up: regimen Daily Repeat, gender Male, age 6-8 weeks
Conditions: in vivo, po, route oral GAVAGE, vehicle .5 % CMC; for ABSOLUTE BASOPHIL / ABSOLUTE EOSINOPHIL / ABSOLUTE LYMPHOCYTE / ABSOLUTE MONOCYTE / ABSOLUTE SEGMENTED NEUTROPHIL / BASOPHIL / EOSINOPHIL / ERYTHROCYTE COUNT / HEMATOCRIT / HEMOGLOBIN / LEUKOCYTE COUNT / LYMPHOCYTE / MEAN CORPUSCULAR HEMOGLOBIN / MEAN CORPUSCULAR HEMOGLOBIN CONCENTRATION / MEAN CORPUSCULAR VOLUME / MONOCYTE / NEUTROPHIL / NUCLEATED RED BLOOD CELLS / PLATELET COUNT: tissue Blood; for ALANINE AMINOTRANSFERASE / ALBUMIN / ALKALINE PHOSPHATASE / ASPARTATE AMINOTRANSFERASE / BLOOD UREA NITROGEN / CARBON DIOXIDE / CHLORIDE / CHOLESTEROL / CREATINE PHOSPHOKINASE / CREATININE / GLUCOSE / LACTATE DEHYDROGENASE / LIPASE / PHOSPHORUS / POTASSIUM / SODIUM / TOTAL BILIRUBIN / TOTAL PROTEIN / URIC ACID: tissue Plasma
[1] = 29 mg/kg, 120 h, dose level Low, time 5 day
[2] = 400 mg/kg, 72 h, dose level High, time 3 day
[3] = 400 mg/kg, 120 h, dose level High, time 5 day

NC(=O)NC(=O)Cc1ccccc1 [PHENACEMIDE]
ABSOLUTE BASOPHIL [1]: 0 CELLS/uL | ABSOLUTE EOSINOPHIL [1]: 29.33 CELLS/uL | ABSOLUTE LYMPHOCYTE [1]: 6627.33 CELLS/uL | ABSOLUTE MONOCYTE [1]: 106 CELLS/uL | ABSOLUTE SEGMENTED NEUTROPHIL [1]: 904 CELLS/uL | BASOPHIL [1]: 0% | EOSINOPHIL [1]: 0.33% | ERYTHROCYTE COUNT [1]: 5.3 x10E6/uL | HEMATOCRIT [1]: 32% | HEMOGLOBIN [1]: 12.6 G/DL | LEUKOCYTE COUNT [1]: 7.67 x10E3/uL | LYMPHOCYTE [1]: 86% | MEAN CORPUSCULAR HEMOGLOBIN [1]: 23.8 pg | MEAN CORPUSCULAR HEMOGLOBIN CONCENTRATION [1]: 39.37 G/DL | MEAN CORPUSCULAR VOLUME [1]: 60.37 fL | MONOCYTE [1]: 1.33% | NEUTROPHIL [1]: 12.33% | NUCLEATED RED BLOOD CELLS [1]: 0 /100WBC | PLATELET COUNT [1]: 1108.33 x10E3/uL | ALANINE AMINOTRANSFERASE [1]: 42.67 u/L | ALBUMIN [1]: 4.13 G/DL | ALKALINE PHOSPHATASE [1]: 433.33 u/L | ASPARTATE AMINOTRANSFERASE [1]: 75.33 u/L | BLOOD UREA NITROGEN [1]: 15.33 mg/dL | CARBON DIOXIDE [1]: 25.67 mmol/L | CHLORIDE [1]: 102.33 MEQ/L | CHOLESTEROL [1]: 82.67 mg/dL | CREATINE PHOSPHOKINASE [1]: 189.67 u/L | CREATININE [1]: 0.28 mg/dL | GLUCOSE [1]: 176.33 mg/dL | LACTATE DEHYDROGENASE [1]: 163.33 u/L | LIPASE [1]: 10 u/L | PHOSPHORUS [1]: 11.93 mg/dL | POTASSIUM [1]: 5.88 MEQ/L | SODIUM [1]: 145.3 MEQ/L | TOTAL BILIRUBIN [1]: 0.1 mg/dL | TOTAL PROTEIN [1]: 6.07 G/DL | URIC ACID [1]: 1.5 mg/dL | ABSOLUTE BASOPHIL [2]: 0 CELLS/uL | ABSOLUTE EOSINOPHIL [2]: 62.33 CELLS/uL | ABSOLUTE LYMPHOCYTE [2]: 7750.67 CELLS/uL | ABSOLUTE MONOCYTE [2]: 54.67 CELLS/uL | ABSOLUTE SEGMENTED NEUTROPHIL [2]: 1099 CELLS/uL | BASOPHIL [2]: 0% | EOSINOPHIL [2]: 0.67% | ERYTHROCYTE COUNT [2]: 5.14 x10E6/uL | HEMATOCRIT [2]: 31.23% | HEMOGLOBIN [2]: 11.97 G/DL | LEUKOCYTE COUNT [2]: 8.97 x10E3/uL | LYMPHOCYTE [2]: 86.67% | MEAN CORPUSCULAR HEMOGLOBIN [2]: 23.33 pg | MEAN CORPUSCULAR HEMOGLOBIN CONCENTRATION [2]: 38.33 G/DL | MEAN CORPUSCULAR VOLUME [2]: 60.87 fL | MONOCYTE [2]: 0.67% | NEUTROPHIL [2]: 12% | NUCLEATED RED BLOOD CELLS [2]: 0.67 /100WBC | PLATELET COUNT [2]: 1052.67 x10E3/uL | ALANINE AMINOTRANSFERASE [2]: 54 u/L | ALBUMIN [2]: 4.33 G/DL | ALKALINE PHOSPHATASE [2]: 480.33 u/L | ASPARTATE AMINOTRANSFERASE [2]: 86 u/L | BLOOD UREA NITROGEN [2]: 17 mg/dL | CARBON DIOXIDE [2]: 30 mmol/L | CHLORIDE [2]: 104 MEQ/L | CHOLESTEROL [2]: 77.67 mg/dL | CREATINE PHOSPHOKINASE [2]: 137.33 u/L | CREATININE [2]: 0.47 mg/dL | GLUCOSE [2]: 160.67 mg/dL | LACTATE DEHYDROGENASE [2]: 98.33 u/L | LIPASE [2]: 11 u/L | PHOSPHORUS [2]: 13.1 mg/dL | POTASSIUM [2]: 5.91 MEQ/L | SODIUM [2]: 148.57 MEQ/L | TOTAL BILIRUBIN [2]: 0.13 mg/dL | TOTAL PROTEIN [2]: 6 G/DL | URIC ACID [2]: 1.17 mg/dL | ABSOLUTE BASOPHIL [3]: 0 CELLS/uL | ABSOLUTE EOSINOPHIL [3]: 0 CELLS/uL | ABSOLUTE LYMPHOCYTE [3]: 9516.67 CELLS/uL | ABSOLUTE MONOCYTE [3]: 47 CELLS/uL | ABSOLUTE SEGMENTED NEUTROPHIL [3]: 1103 CELLS/uL | BASOPHIL [3]: 0% | EOSINOPHIL [3]: 0% | ERYTHROCYTE COUNT [3]: 5.74 x10E6/uL | HEMATOCRIT [3]: 34.53% | HEMOGLOBIN [3]: 13.23 G/DL | LEUKOCYTE COUNT [3]: 10.67 x10E3/uL | LYMPHOCYTE [3]: 88.67% | MEAN CORPUSCULAR HEMOGLOBIN [3]: 23.07 pg | MEAN CORPUSCULAR HEMOGLOBIN CONCENTRATION [3]: 38.33 G/DL | MEAN CORPUSCULAR VOLUME [3]: 60.23 fL | MONOCYTE [3]: 0.33% | NEUTROPHIL [3]: 11% | NUCLEATED RED BLOOD CELLS [3]: 0 /100WBC | PLATELET COUNT [3]: 1161.33 x10E3/uL | ALANINE AMINOTRANSFERASE [3]: 47 u/L | ALBUMIN [3]: 4.43 G/DL | ALKALINE PHOSPHATASE [3]: 491.67 u/L | ASPARTATE AMINOTRANSFERASE [3]: 84.33 u/L | BLOOD UREA NITROGEN [3]: 22 mg/dL | CARBON DIOXIDE [3]: 24.67 mmol/L | CHLORIDE [3]: 105 MEQ/L | CHOLESTEROL [3]: 64 mg/dL | CREATINE PHOSPHOKINASE [3]: 157 u/L | CREATININE [3]: 0.73 mg/dL | GLUCOSE [3]: 176.33 mg/dL | LACTATE DEHYDROGENASE [3]: 96.33 u/L | LIPASE [3]: 8.67 u/L | PHOSPHORUS [3]: 12.63 mg/dL | POTASSIUM [3]: 6.59 MEQ/L | SODIUM [3]: 146.77 MEQ/L | TOTAL BILIRUBIN [3]: 0.1 mg/dL | TOTAL PROTEIN [3]: 5.97 G/DL | URIC ACID [3]: 1.8 mg/dL
